ChEMBL document CHEMBL3390845, “Development of second generation amidinohydrazones, thio- and semicarbazones as Trypanosoma cruzi-inhibitors bearing benzofuroxan and benzimidazole 1,3-dioxide core scaffolds” (Medchemcomm, 2010)

Legend:
[1] = Hemolytic activity in human RBC assessed as hemoglobin release after 24 hrs by spectrophotometry; format: ADME, cell-based, Erythrocyte; conditions: for HC50 at 24 h: human red blood cells (RBC), read-out: ID50; for ID50: erythrocyte, 24 h
[2] = Selectivity index, ratio of ID50 for human RBC to ID50 for epimastigotes of Trypanosoma cruzi Tulahuen 2
[3] = system: Trypanosoma cruzi; test: Antitrypanosomal activity against epimastigotes of Trypanosoma cruzi Tulahuen 2 assessed as parasite growth inhibition after 5 days; format: functional; conditions: Tulahuen 2, 120 h, read-out: ID50 (the source's name)
[4] = molecular target: Cruzipain (Trypanosoma cruzi) (UniProt P25779); test: Inhibition of Trypanosoma cruzi Cruzipain using Z-Phe-Arg-AMC as substrate measured for 10 mins by spectrofluorimetric analysis relative to control
[5] = molecular target: Cruzipain (Trypanosoma cruzi) (UniProt P25779); test: Inhibition of Trypanosoma cruzi Cruzipain using Z-Phe-Arg-AMC as substrate at 100 uM at pH 7.3 measured for 10 mins by spectrofluorimetric analysis relative to control
[6] = Cytotoxicity in mouse J774 cells assessed as cell viability after 48 hrs by MTT assay; format: cell-based; conditions: read-out: ID50
[7] = Selectivity index, ratio of ID50 for mouse J774 cells to ID50 for epimastigotes of Trypanosoma cruzi Tulahuen 2; format: toxicity, cell-based; conditions: read-out: Selectivity Index
[8] = molecular target: Cruzipain (Trypanosoma cruzi) (UniProt P25779); test: Inhibition of Trypanosoma cruzi Cruzipain using Z-Phe-Arg-AMC as substrate at 100 uM at pH 5.3 measured for 10 mins by spectrofluorimetric analysis relative to control
[9] = molecular target: Cruzipain (Trypanosoma cruzi) (UniProt P25779); test: Inhibition of Trypanosoma cruzi Cruzipain using Z-Phe-Arg-AMC as substrate at 100 uM at pH 7.3 measured for 10 mins by spectrofluorimetric analysis relative to control in presence of Triton X-100

Cruzipain (Trypanosoma cruzi), sequence (P25779 123-467 limits assumed): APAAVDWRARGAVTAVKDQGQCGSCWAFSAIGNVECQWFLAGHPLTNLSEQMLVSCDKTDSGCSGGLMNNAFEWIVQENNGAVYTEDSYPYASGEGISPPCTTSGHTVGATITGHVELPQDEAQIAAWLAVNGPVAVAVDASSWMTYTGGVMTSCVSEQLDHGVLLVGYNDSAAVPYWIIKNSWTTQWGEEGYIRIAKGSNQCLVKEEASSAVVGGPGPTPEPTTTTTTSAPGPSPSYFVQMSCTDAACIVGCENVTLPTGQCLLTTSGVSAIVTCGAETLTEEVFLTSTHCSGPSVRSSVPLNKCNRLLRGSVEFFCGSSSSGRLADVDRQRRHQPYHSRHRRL

Compound | HC50 at 24 h [1] [µM] | Selectivity Index [2] | IC50 [3] [µM] | ID50 [4] [µM] | inhibition [5] [%] | CC50 at 48 h [6] [µM] | ID50 [1] | selectivity ratio [7] | inhibition [8] [%] | inhibition [9] [%]
C[C@@H]1[C@H](O)[C@@H](C)/C=C/C=C/C=C/C=C/C=C/C=C/C=C/[C@H](O[C@@H]2O[C@H](C)[C@@H](O)[C@H](N)[C@@H]2O)C[C@@H]2O[C@](O)(C[C@@H](O)C[C@@H](O)[C@H](O)CC[C@@H](O)C[C@@H](O)CC(=O)O[C@H]1C)C[C@H](O)[C@H]2C(=O)O [AMPHOTERICIN B] | 1.5 | 10 |  |  |  |  |  |  |  | 
[O-][n+]1onc2ccc(/C=N/N=C/c3ccccc3O)cc21 |  |  | > 25 | 68 |  |  |  |  |  | 
CC1(C)[N+]([O-])=c2ccc(COc3ccccc3/C=N\NC(=S)Nc3ccccc3)cc2=[N+]1[O-] | 66 |  | 7.7 | > 100 | 0 | < 100 |  |  |  | 
O=Cc1ccc(OCc2ccc3no[n+]([O-])c3c2)cc1 | < 50 |  |  | > 100 | 6.3 |  |  |  |  | 
CC(=O)c1ccccc1OCc1ccc2c(c1)=[N+]([O-])C(C)(C)[N+]=2[O-] | < 50 |  | > 25 | > 100 | 0 |  |  |  |  | 
CC1CS(=O)(=O)CCN1/N=C/c1ccc([N+](=O)[O-])o1 (stereo not given) [NIFURTIMOX] | > 100 | 13 |  |  |  |  |  |  |  | 
C/C(=N/NC(=N)N)c1ccccc1OCc1ccc2no[n+]([O-])c2c1 | > 200 |  | 16.6 | > 100 | 21 |  |  |  |  | 
[O-][n+]1onc2ccc(/C=N/N=C/c3cc(Br)ccc3O)cc21 |  |  | 25 | 73 |  |  |  |  |  | 
C=CCNC(=S)N/N=C/c1ccc(OCc2ccc3no[n+]([O-])c3c2)cc1 |  |  | > 25 | > 100 | 38 |  | ND(Insoluble) |  |  | 
NC(=O)N/N=C\c1ccccc1OCc1ccc2no[n+]([O-])c2c1 | > 100 |  | > 25 | > 100 | 7 | < 100 |  |  |  | 
CC1(C)[N+]([O-])=c2ccc(COc3ccccc3/C=N\NC(N)=O)cc2=[N+]1[O-] | 50 |  | 4.7 | > 100 | 0 |  |  |  |  | 
C=CCNC(=S)N/N=C/c1ccc(OCc2ccc3c(c2)=[N+]([O-])C(C)(C)[N+]=3[O-])cc1 | > 100 |  | 23 | 100 | 51 |  |  |  |  | 
C=CCNC(=S)N/N=C\c1ccccc1OCc1ccc2no[n+]([O-])c2c1 | 139 |  | 23 | > 100 | 11 | 138 |  |  |  | 
N=C(N)N/N=C\c1ccccc1OCc1ccc2no[n+]([O-])c2c1 | 58 |  | > 25 | > 100 | 39 | < 100 |  |  |  | 
[O-][n+]1onc2ccc(COc3ccc(/C=N/NC(=S)Nc4ccccc4)cc3)cc21 |  |  | 7 | 75 | 95 |  | ND(Insoluble) |  |  | 
CC1(C)[N+]([O-])=c2ccc(COc3cccc(/C=N/NC(N)=S)c3)cc2=[N+]1[O-] | 141 |  | 24 | 64 | 95 |  |  |  |  | 
CC1(C)[N+]([O-])=c2ccc(COc3ccc(/C=N/NC(=S)Nc4ccccc4)cc3)cc2=[N+]1[O-] | < 50 |  | > 25 | 85 | 72 |  |  |  |  | 
NC(=O)N/N=C/c1ccc(OCc2ccc3no[n+]([O-])c3c2)cc1 | > 200 |  |  | > 100 |  |  |  |  |  | 
N=C(N)N/N=C/c1ccc(OCc2ccc3no[n+]([O-])c3c2)cc1 | > 200 |  |  | 32 |  |  |  |  |  | 

Compound | HC50 at 24 h [1] [µM] | Selectivity Index [2] | IC50 [3] [µM] | ID50 [4] [µM] | inhibition [5] [%] | CC50 at 48 h [6] [µM] | ID50 [1] | selectivity ratio [7] | inhibition [8] [%] | inhibition [9] [%]
NC(=S)N/N=C/c1cccc(OCc2ccc3no[n+]([O-])c3c2)c1 |  |  | 15 | 78 | 80 |  | ND(Insoluble) |  |  | 
NC(=S)N/N=C\c1ccccc1OCc1ccc2no[n+]([O-])c2c1 | 189 |  | > 25 | 100 | 49 | < 100 |  |  |  | 
CC(=O)c1ccccc1OCc1ccc2no[n+]([O-])c2c1 | > 200 |  | 7 | > 100 | 12 |  |  |  |  | 
[O-][n+]1onc2ccc(COc3ccccc3/C=N\NC(=S)Nc3ccccc3)cc21 | > 200 | > 55.6 | 3.6 | > 100 | 0 | > 400 |  | > 111 |  | 
CC1(C)[N+]([O-])=c2ccc(COc3cccc(C=O)c3)cc2=[N+]1[O-] | < 50 |  | > 25 | 100 | 45 |  |  |  |  | 
O=Cc1cccc(OCc2ccc3no[n+]([O-])c3c2)c1 | 50 |  | 28 | 100 | 43 |  |  |  |  | 
CC1(C)[N+]([O-])=c2ccc(COc3ccc(C=O)cc3)cc2=[N+]1[O-] | 65 |  | 17 | > 100 | 35.5 | < 100 |  |  |  | 
C=CCNC(=S)N/N=C\c1ccccc1OCc1ccc2c(c1)=[N+]([O-])C(C)(C)[N+]=2[O-] |  |  | 2.7 | > 100 | 6.6 |  | ND(Insoluble) |  |  | 
C=CCNC(=S)N/N=C/c1ccc2c(c1)=[N+]([O-])C(C)(C)[N+]=2[O-] |  |  | 7.2 |  |  |  |  |  |  | 
CC1(C)[N+]([O-])=c2ccc(COc3ccccc3/C=N\NC(=N)N)cc2=[N+]1[O-] | 114 |  | > 25 | > 100 | 2.5 |  |  |  |  | 
C=CCNC(=S)N/N=C/c1cccc(OCc2ccc3no[n+]([O-])c3c2)c1 |  |  | 13 | 55 | 100 |  | ND(Insoluble) |  | 79 | 90
O=Cc1ccccc1OCc1ccc2no[n+]([O-])c2c1 | > 100 | > 15.9 | 6.3 | > 100 | 0 | 78 |  | 12.4 |  | 
CC1(C)[N+]([O-])=c2ccc(COc3ccc(/C=N/NC(N)=S)cc3)cc2=[N+]1[O-] |  |  | 17 | > 100 | 13.7 |  | ND(Insoluble) |  |  | 
[O-][n+]1onc2ccc(/C=N/NC(=S)Nc3ccccc3)cc21 |  |  | 8.3 | 78 |  |  |  |  |  | 
CC1(C)[N+]([O-])=c2ccc(COc3ccccc3/C=N\NC(N)=S)cc2=[N+]1[O-] | > 200 |  | 14 | > 100 | 35 |  |  |  |  | 
N=C(N)N/N=C/c1cccc(OCc2ccc3no[n+]([O-])c3c2)c1 | > 100 |  | > 25 | 100 | 42 |  |  |  | 28 | 
NC(=S)N/N=C/c1ccc(OCc2ccc3no[n+]([O-])c3c2)cc1 | > 200 | > 13.3 |  | 43 |  |  |  | 26.7 |  | 
CC1(C)[N+]([O-])=c2ccc(COc3ccc(/C=N/NC(N)=O)cc3)cc2=[N+]1[O-] | > 200 |  | > 25 | > 100 | 0 |  |  |  |  | 
